What was measured:
[1] = system: Pu27 / G4-Pu27 DNA; test: CD spectroscopy; format: binding; set-up: key to Extent of change at 290―295 nm (%): “—”represents no obvious changes in the peaks; conditions: DNA 10 μM, compound 20 μM; for Extent of change at 250―265 nm (%): given with ↓; for Extent of change at 290―295 nm (%): Pu27 (G4-Pu27)
Procedure: We asked whether chiral platinum(II) complexes 4–6 have the ability to bind to G-quadruplex DNA. To address this, FRET assays, CD spectroscopy, G4-FID assays, and fluorescence titration analysis were performed. […] For G4-HTG21, the ^G4DC50 values of complexes 4–6 were 1.23, 1.26 and 0.99 μM, respectively; while, for G4-Pu27, the ^G4DC50 values were 1.01, 0.89, and 0.82 μM, respectively. In addition, the ^ctDNADC50/^G4DC50 ratio of the HTG21 and Pu27 G4s treated with complexes 4–6 was in the range of 50.54-90.65 and 71.56-110.67 folds, respectively. To further evaluate the binding ability of complexes 4–6 to Pu27 and HTG21G4s, CD spectroscopy and fluorescence titration analysis were performed. […] The quenching ability of complexes 4–6 to HTG21 and Pu27 G4 DNA fluorescence can be quantitatively estimated by their respective quenching constant (Kq), which was derived from the Stern-Volmer quenching equation. […] Finally, the selective binding of complexes 4–6 towards G4 DNA was analyzed by FRET-melting assays. […] In contrast, the ΔTm value for the F32T+H20M duplex DNA in the presence of complexes 4–6 was 1.18, 1.34, and 0.78 °C under the same conditions (Figure 4A). Altogether, our data indicated complexes 4–6, especially complex 6, is the best binder to G4 DNA, which caused DNA complex displaying the highest thermodynamic stability.
www.impactjournals.com/oncotarget/ Oncotarget, Supplementary Materials 2017 […]
Supplementary Figure 23: CD spectra of Pu27 DNA (10 μM) in the absence of K+ upon addition of compounds (20 μM).

[2] = target: T1, telomerase (Homo sapiens, UniProt O14746); test: TRAP assay (TRAP-silver staining assay); format: biochemical; conditions: BEL-7404 cells, 10 μM, 24 h
T1 construct: Each telomerase extract was prepared from BEL-; endogenous in cells; host or cells: BEL-7404 cell extract
T1 sequence (O14746 whole entry): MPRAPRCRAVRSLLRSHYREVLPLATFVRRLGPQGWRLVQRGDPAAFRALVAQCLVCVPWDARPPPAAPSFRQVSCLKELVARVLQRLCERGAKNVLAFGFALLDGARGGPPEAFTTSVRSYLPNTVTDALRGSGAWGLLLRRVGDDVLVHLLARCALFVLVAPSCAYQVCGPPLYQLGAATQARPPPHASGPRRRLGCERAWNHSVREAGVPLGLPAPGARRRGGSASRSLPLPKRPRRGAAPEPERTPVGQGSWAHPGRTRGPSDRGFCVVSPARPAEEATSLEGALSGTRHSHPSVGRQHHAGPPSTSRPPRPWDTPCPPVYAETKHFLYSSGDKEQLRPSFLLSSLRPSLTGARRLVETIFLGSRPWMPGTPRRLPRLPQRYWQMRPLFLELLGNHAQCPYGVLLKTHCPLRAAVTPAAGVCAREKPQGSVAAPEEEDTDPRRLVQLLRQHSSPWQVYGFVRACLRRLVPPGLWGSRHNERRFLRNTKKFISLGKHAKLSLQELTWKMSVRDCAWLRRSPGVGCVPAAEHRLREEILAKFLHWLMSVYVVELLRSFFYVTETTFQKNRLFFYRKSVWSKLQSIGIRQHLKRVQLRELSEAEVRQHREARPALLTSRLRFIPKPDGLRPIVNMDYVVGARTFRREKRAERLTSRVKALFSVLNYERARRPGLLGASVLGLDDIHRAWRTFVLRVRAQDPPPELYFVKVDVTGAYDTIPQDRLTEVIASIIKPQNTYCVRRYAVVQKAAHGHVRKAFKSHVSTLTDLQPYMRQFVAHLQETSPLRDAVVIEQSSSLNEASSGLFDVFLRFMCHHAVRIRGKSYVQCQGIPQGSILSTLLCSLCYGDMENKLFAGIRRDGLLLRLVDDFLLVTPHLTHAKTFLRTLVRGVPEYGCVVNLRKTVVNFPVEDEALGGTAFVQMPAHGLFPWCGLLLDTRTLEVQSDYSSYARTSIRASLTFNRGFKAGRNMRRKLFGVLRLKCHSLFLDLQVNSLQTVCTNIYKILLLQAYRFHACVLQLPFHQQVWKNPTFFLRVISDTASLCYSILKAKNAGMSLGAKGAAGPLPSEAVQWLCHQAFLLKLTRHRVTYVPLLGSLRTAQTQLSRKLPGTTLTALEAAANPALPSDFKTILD
T1 sequence (O60832 whole entry partner): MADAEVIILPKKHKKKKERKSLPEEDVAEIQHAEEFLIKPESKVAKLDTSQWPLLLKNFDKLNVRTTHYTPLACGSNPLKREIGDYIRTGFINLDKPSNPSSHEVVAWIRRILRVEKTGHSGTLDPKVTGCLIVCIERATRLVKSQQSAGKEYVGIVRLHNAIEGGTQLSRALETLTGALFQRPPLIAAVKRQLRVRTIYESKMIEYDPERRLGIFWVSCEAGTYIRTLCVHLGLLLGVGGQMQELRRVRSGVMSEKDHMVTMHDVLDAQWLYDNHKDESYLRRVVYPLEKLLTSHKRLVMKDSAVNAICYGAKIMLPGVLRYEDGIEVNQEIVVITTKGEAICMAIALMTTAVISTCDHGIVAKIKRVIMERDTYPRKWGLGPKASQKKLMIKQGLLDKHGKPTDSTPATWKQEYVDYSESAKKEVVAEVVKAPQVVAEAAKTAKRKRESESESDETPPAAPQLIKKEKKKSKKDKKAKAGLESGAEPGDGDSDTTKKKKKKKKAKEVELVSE
T1 sequence (Q9NPE3 whole entry partner): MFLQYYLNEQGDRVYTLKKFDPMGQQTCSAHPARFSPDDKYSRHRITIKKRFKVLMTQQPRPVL
T1 sequence (Q9NX24 whole entry partner): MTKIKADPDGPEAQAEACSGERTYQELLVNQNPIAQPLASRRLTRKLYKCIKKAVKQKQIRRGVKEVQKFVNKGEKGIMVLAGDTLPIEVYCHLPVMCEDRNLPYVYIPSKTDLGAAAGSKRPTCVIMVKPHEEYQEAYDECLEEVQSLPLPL
T1 sequence (Q9NY12 whole entry partner): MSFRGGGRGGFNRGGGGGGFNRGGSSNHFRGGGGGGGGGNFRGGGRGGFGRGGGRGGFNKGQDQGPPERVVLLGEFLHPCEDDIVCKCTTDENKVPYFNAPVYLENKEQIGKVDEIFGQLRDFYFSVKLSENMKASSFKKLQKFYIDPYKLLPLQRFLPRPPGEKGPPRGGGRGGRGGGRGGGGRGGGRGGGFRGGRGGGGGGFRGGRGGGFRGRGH
T1 sequence (Q9BUR4 whole entry partner): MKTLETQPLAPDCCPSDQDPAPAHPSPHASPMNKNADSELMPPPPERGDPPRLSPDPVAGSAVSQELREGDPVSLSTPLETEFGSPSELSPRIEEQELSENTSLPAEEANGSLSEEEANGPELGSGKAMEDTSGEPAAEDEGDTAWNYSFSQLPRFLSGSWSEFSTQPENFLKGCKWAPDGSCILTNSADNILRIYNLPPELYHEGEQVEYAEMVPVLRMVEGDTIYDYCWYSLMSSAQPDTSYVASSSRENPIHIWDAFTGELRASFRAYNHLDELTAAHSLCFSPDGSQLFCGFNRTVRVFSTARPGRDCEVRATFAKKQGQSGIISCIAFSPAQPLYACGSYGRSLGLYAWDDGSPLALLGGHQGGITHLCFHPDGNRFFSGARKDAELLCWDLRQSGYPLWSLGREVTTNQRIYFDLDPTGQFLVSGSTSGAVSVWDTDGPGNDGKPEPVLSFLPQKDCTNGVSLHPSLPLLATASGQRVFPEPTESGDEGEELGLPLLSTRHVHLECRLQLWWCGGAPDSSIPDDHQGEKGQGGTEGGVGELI
Description: As mentioned above, G4s structures widely exist in telomeres, we therefore monitored the effect of chiral platinum(II) complexes on function and activity of telomerase. To address this, we first determined the effect of complexes 4–6 on the expression of some telomeric DNA-associated proteins. […] We next evaluated the activity of telomerase by TRAP assay.
Apoptosis analysis c-myc antibody, or anti-β-actin primary antibody and the Apoptosis was detected by flow cytometric analysis corresponding secondary antibody were used to detect of annexin V staining. Annexin V-FITC vs PI assay was target protein via standard washing and incubating steps. performed as previously described. Briefly, adherent Senescence induction and selective binding to NEL-7404 cells were harvested and suspended in the G4s by 4–6 in BEL-7404 cells annexin-binding buffer (5×10^5 cells/mL). Then, cells were incubated with annexin V-FITC and PI for 1.0 h at Staining for SA-β-Gal activity was carried out room temperature in the dark and immediately analyzed according to Moore and Chen reports. In brief, by flow cytometry. The data are presented as biparametric After the long-term incubation with complexes 4–6, the dot plots showing PI red fluorescence vs annexin V-FITC growth medium was aspirated and the BEL-7404 cells green fluorescence. were fixed in 2% formaldehyde/0.2% glutaraldehyde for 15.0 min at room temperature. […] Finally, the extraction, RT-PCR, and the selective binding to G4s by BEL-7404 cell cycle was determined with FACS Calibur complexes 4–6 was according to the our previous reported flow cytometer (BD) and analyzed using Cell Quest.
(BDIS) and ModFit LT (Verity Software House, Topsham, ME). Gene expression by a panel of genes for RT-Determination of caspase-3/9 activity by flow qPCR array cytometric analysis Differential expression of telomeres/telomerase-related genes was analyzed using the Telomeres & […]

[3] = Solubility in water by UV-vis spectroscopy; format: physicochemical; conditions: H2O
Procedure: We next determined the solubility and stability of complexes 4, 5, and 6 in H2O and TBS buffer by UV-vis spectroscopy. […] TBS buffer (1% DMSO, 100 mM KCl, and 10 mM pH 7.35 Tris-HCl) was used to mimic normal physiological conditions.

| Substance | Extent of change at 250―265 nm (%) ([1]; G4-Pu27 (presence of K+)) | Extent of change at 290―295 nm (%) [1] | Extent of change at 250―265 nm (%) ([1]; Pu27 (absence of K+)) | inhibitory ratio of telomerase activity [2] [%] | solubility in water [3] [µg/mL] |
| --- | --- | --- | --- | --- | --- |
| cis-[PtCl2(R-(+)-FOA)] [complex 5] | 57.01 | — | 62.63 | 23.35 | 1000 |
| cis-[PtCl2(R/S-(±)-FOA)] [complex 4] | 67.47 | — | 72.16 | 63.03 | 680 |
| cis-[PtCl2(S-(–)-FOA)] [complex 6] | 76.23 | — | 80.88 | 67.82 | 2000 |
